# Test results from PubChem BioAssay AID1117325 (Cheminformatics & Chemogenomics Research Group (CCRG), …, 2015).
# Several values for one entry are separate records, joined by “and”; a condition that tells them apart may be missing. Equal values may be shown once. Activity calls are given as the source filed them. No rule for the calls is given here. *1 amine or outer side, *2 acyl side, *3 side chain or, on linkers, in order; H or OH if unused. Where a SMILES comes first, the peptide text is derived from it. Bridges are numbered along the chain shown (N, C = ends). Roman numbers before positions name the chains, in order. [ ]: non-standard residue; d: D form. Actinocin(9to1) = Cc1c2oc3c(C)ccc(C(=O)[*:1])c3nc-2c(C(=O)[*:2])c(N)c1=O; NMeV = CN[C@H](C(=O)O)C(C)C; Sar = CNCC(=O)O
# System: C2C12 WNT3A-conditioned, nuclear beta-catenin
# Assay: activation of intranuclear CTNNB1 in the C2C12 line, dose-response, cell-based, Wnt-3a conditioned medium, half-maximal inhibitory concentration (AID 1117325)
row,SMILES,IC50
1,O=C1OC2(c3cc(Br)c(O)cc3Oc3c2cc(Br)c(O)[c]3[Hg])c2ccccc21 (centres undefined),16900 nM (inactive)
2,Cc1ccc([N+](=O)[O-])[c]2c1[O][Hg]2,1510 nM
3,"Cc1c2oc3c(C)ccc(C(=O)N[C@@H]4C(=O)N[C@H](C(C)C)C(=O)N5CCC[C@H]5C(=O)N(C)CC(=O)N(C)[C@@H](C(C)C)C(=O)O[C@@H]4C)c3nc-2c(C(=O)N[C@@H]2C(=O)N[C@H](C(C)C)C(=O)N3CCC[C@H]3C(=O)N(C)CC(=O)N(C)[C@@H](C(C)C)C(=O)O[C@@H]2C)c(N)c1=O (I: T[dV]P[Sar][NMeV] / II: T[dV]P[Sar][NMeV]; ester I:1-I:C, II:1-II:C; linker I:N-II:N via Actinocin(9to1))",37 nM
4,O=C1c2c(O)ccc(O)c2C(=O)c2c(NCCNCCO)ccc(NCCNCCO)c21,30.3 nM
5,Cc1ccc2c(Br)cc(Br)c(O)c2n1,> 20000 nM (inactive)
6,CN(C)c1ccc(C(=C2C=CC(=[N+](C)C)C=C2)c2ccccc2)cc1,> 20000 nM (inactive)
7,CCCCC1C(=O)N(c2ccccc2)N(c2ccc(O)cc2)C1=O (centres undefined),> 20000 nM (inactive)
8,C[C@@]12C(=O)OC(=O)[C@]1(C)C1CCC2O1,> 20000 nM (inactive)
9,CCCOc1ccc2nc(NC(=O)OC)[nH]c2c1,365 nM
10,CCCN(CCC)C(=O)C(CCC(=O)OCCCN1CCN(CCOC(=O)Cc2c(C)n(C(=O)c3ccc(Cl)cc3)c3ccc(OC)cc23)CC1)NC(=O)c1ccccc1 (centres undefined),> 20000 nM (inactive)
11,OCCN1CCN(CCCN2c3ccccc3Sc3ccc(Cl)cc32)CC1,> 20000 nM (inactive)
12,COc1ccc2cc1Oc1ccc(cc1)C[C@H]1c3c(cc4c(c3Oc3cc5c(cc3OC)CCN(C)[C@@H]5C2)OCO4)CCN1C,5630 nM (inactive)
13,CC(=O)Oc1ccc(C2(c3ccc(OC(C)=O)cc3)Oc3ccccc3NC2=O)cc1,> 20000 nM (inactive)
14,CN1CC[C@H](c2c(O)cc(O)c3c(=O)cc(-c4ccccc4Cl)oc23)[C@H](O)C1,190 nM
15,CC(=O)O[C@@]12CO[C@@H]1C[C@H](O)[C@@]1(C)C(=O)[C@H](O)C3=C(C)[C@@H](OC(=O)[C@H](O)[C@@H](NC(=O)OC(C)(C)C)c4ccccc4)C[C@@](O)([C@@H](OC(=O)c4ccccc4)[C@H]21)C3(C)C,65.2 nM
16,O=[N+]([O-])c1ccc(O)c2ncccc12,> 20000 nM (inactive)
17,Cc1ccccc1C(=O)Nc1ccc(C(=O)N2CCCC(N(C)C)c3ccccc32)cc1 (centres undefined),4560 nM
18,CCC1=C[C@@H]2CN(C1)Cc1c([nH]c3ccccc13)[C@@](C(=O)OC)(c1cc3c(cc1OC)N(C)[C@H]1[C@@](O)(C(=O)OC)[C@H](OC(C)=O)[C@]4(CC)C=CCN5CC[C@]31[C@@H]54)C2,8.9 nM
19,COC(=O)Nc1nc2ccc(Sc3ccccc3)cc2[nH]1,4840 nM
20,CCCCCCCCCCCCCCC[C@H](O)[C@@H](N)CO,> 20000 nM (inactive)
21,O=C1C(I)=CC(=C(c2cc(I)c(O)c(I)c2)c2ccccc2C(=O)O)C=C1I,> 20000 nM (inactive)

row,SMILES,IC50
1,CCN(CC)CCNc1ccc(CO)c2sc3ccccc3c(=O)c12,> 20000 nM (inactive)
2,Cc1cc(O)c2ccccc2c1O,4390 nM
3,CCCCCCNC(=O)n1cc(F)c(=O)[nH]c1=O,4980 nM
4,O=C(Nc1ccc([N+](=O)[O-])cc1Cl)c1cc(Cl)ccc1O,1570 nM
5,NC(N)=NN=C(/C=C/c1ccc([N+](=O)[O-])o1)/C=C/c1ccc([N+](=O)[O-])o1,> 20000 nM (inactive)
6,CCCCc1ccc2nc(NC(=O)OC)[nH]c2c1,33.6 nM
7,COc1cccc2c1C(=O)c1c(O)c3c(c(O)c1C2=O)C[C@@](O)(C(=O)CO)CC3OC1CC(N2CCOC(OC)C2)C(O)C(C)O1 (some centres undefined),13.5 nM
8,COC(=O)Nc1nc2ccc(C(=O)c3ccccc3)cc2[nH]1,1740 nM
9,CCc1nc(N)nc(N)c1-c1ccc(Cl)cc1,860 nM
10,CN(C)C(=S)SSC(=S)N(C)C,> 20000 nM (inactive)
11,O=C1C2CC=CCC2C(=O)N1SC(Cl)(Cl)Cl (centres undefined),> 20000 nM (inactive)
12,CCCCCCCCCCCCCC[N+](C)(C)C,> 20000 nM (inactive)
13,CC[C@@]1(O)C(=O)OCc2c1cc1n(c2=O)Cc2cc3c(CN(C)C)c(O)ccc3nc2-1,134 nM
14,CSc1ccc2c(c1)C(N1CCN(C)CC1)Cc1ccccc1S2 (centres undefined),> 20000 nM (inactive)
15,O=c1c(-c2ccccc2)c1-c1ccccc1,> 20000 nM (inactive)
16,Cc1nc(Nc2ncc(C(=O)Nc3c(C)cccc3Cl)s2)cc(N2CCN(CCO)CC2)n1,104 nM
17,COc1cc([C@@H]2c3cc4c(cc3[C@H](O)[C@H]3COC(=O)[C@H]23)OCO4)cc(OC)c1OC,13.1 nM
18,Cc1nc2ccc(CN(C)c3ccc(C(=O)N[C@@H](CCC(=O)O)C(=O)O)s3)cc2c(=O)[nH]1,12.7 nM
19,COC(=O)Nc1nc2ccc(C(=O)C3CC3)cc2[nH]1,349 nM
20,Oc1c(Cl)cc(Cl)cc1Sc1cc(Cl)cc(Cl)c1O,> 20000 nM (inactive)
21,CC(=O)[C@]1(O)Cc2c(O)c3c(c(O)c2[C@@H](O[C@H]2C[C@H](N)[C@H](O)[C@H](C)O2)C1)C(=O)c1ccccc1C3=O,100 nM

row,SMILES,IC50
1,NC(=NCCCCCCN=C(N)/N=C(\N)Nc1ccc(Cl)cc1)/N=C(\N)Nc1ccc(Cl)cc1,> 20000 nM (inactive)
2,CCCCCCCCCCCCNCCNCCNCC(=O)O,> 20000 nM (inactive)
3,c1ccc2c(c1)Sc1ccccc1N2CC1CN2CCC1CC2 (centres undefined),> 20000 nM (inactive)
4,COCc1c(C(C)C)nc(C(C)C)c(/C=C/[C@@H](O)C[C@@H](O)CC(=O)O)c1-c1ccc(F)cc1,6670 nM (inactive)
5,Cc1nc(N)nc(N)c1-c1ccc(Cl)c(Cl)c1,50.4 nM
6,CC(C)C[C@H](NC(=O)[C@H](CCc1ccccc1)NC(=O)CN1CCOCC1)C(=O)N[C@@H](Cc1ccccc1)C(=O)N[C@@H](CC(C)C)C(=O)[C@@]1(C)CO1,29.2 nM
7,CC(C)(C)C(=O)OCOP(=O)(COCCn1cnc2c(N)ncnc21)OCOC(=O)C(C)(C)C,704 nM
8,COc1cc([C@@H]2c3cc4c(cc3[C@@H](O[C@@H]3O[C@@H]5CO[C@@H](C)O[C@@H]5[C@H](O)[C@@H]3O)[C@H]3COC(=O)[C@H]23)OCO4)cc(OC)c1O,> 20000 nM (inactive)
9,COC(=O)Nc1nc2ccc(S(=O)c3ccccc3)cc2[nH]1 (centres undefined),468 nM
10,O=C(CCl)c1ccc(Cl)cc1Cl,373 nM
11,CC[C@@]1(O)C(=O)OCc2c1cc1n(c2=O)Cc2c-1nc1ccccc1c2/C=N/OC(C)(C)C,1160 nM
12,Nc1ccc2cc3ccc(N)cc3nc2c1,5990 nM (inactive)
13,COc1cccc2c1C(=O)c1c(O)c3c(c(O)c1C2=O)C[C@@](O)(C(C)=O)C[C@@H]3O[C@H]1C[C@H](N)[C@H](O)[C@H](C)O1,369 nM
14,COc1cc(NCc2ccc3nc(N)nc(N)c3c2C)cc(OC)c1OC,3.3 nM
15,Cc1cc(C2CCCCC2)n(O)c(=O)c1,> 20000 nM (inactive)
16,O=[N+]([O-])C(Br)(CO)CO,> 20000 nM (inactive)
17,COc1cccc2c1C(=O)c1c(O)c3c(c(O)c1C2=O)C[C@@](O)(C(=O)CO)C[C@@H]3O[C@H]1C[C@H](N)[C@H](O[C@@H]2CCCCO2)[C@H](C)O1,> 20000 nM (inactive)
18,CC[C@]1(O)C[C@@H]2CN(CCc3c([nH]c4ccccc34)[C@@](C(=O)OC)(c3cc4c(cc3OC)N(C)[C@H]3[C@@](O)(C(=O)OC)[C@H](OC(C)=O)[C@]5(CC)C=CCN6CC[C@]43[C@@H]65)C2)C1,3.5 nM and 5.8 nM
19,CC[C@@H]([C@H](C)O)n1ncn(-c2ccc(N3CCN(c4ccc(OC[C@@H]5CO[C@@](Cn6cncn6)(c6ccc(F)cc6F)C5)cc4)CC3)cc2)c1=O,5290 nM (inactive)
20,O[C@@H](c1cc(C(F)(F)F)nc2c(C(F)(F)F)cccc12)[C@H]1CCCCN1,> 20000 nM (inactive)
21,CCCSc1ccc2nc(NC(=O)OC)[nH]c2c1,1280 nM

row,SMILES,IC50
1,COC(=O)c1nc(Cl)c(Cl)nc1N,308 nM
2,C=CC(=O)Nc1cc2c(Nc3ccc(F)c(Cl)c3)ncnc2cc1OCCCN1CCOCC1,1000 nM
3,CCCCCCCCCCCCCC[N+](C)(C)Cc1ccccc1,> 20000 nM (inactive)
4,CN1C[C@H](CNC(=O)OCc2ccccc2)C[C@@H]2c3cccc4c3c(cn4C)C[C@H]21,> 20000 nM (inactive)
5,Cc1cc(CC(C)CC(C)(C)C)n(O)c(=O)c1 (centres undefined),591 nM
6,COC(=O)[C@H]1[C@H]2C[C@@H]3c4[nH]c5cc(OC)ccc5c4CCN3C[C@H]2C[C@@H](OC(=O)/C=C/c2ccc(O)c(OC)c2)[C@@H]1OC,> 20000 nM (inactive)
7,Cc1cc(=O)c2c(O)c3c(O)cc(=O)c4c3c3c(cc(O)c1c23)C(C)(C)C=4O,1070 nM
8,C#C[C@]1(O)CC[C@H]2[C@@H]3CCc4cc(OC5CCCC5)ccc4[C@H]3CC[C@@]21C,> 20000 nM (inactive)
9,C[n+]1c2cc(N)ccc2cc2ccc(N)cc21 (tested in a mixture with another compound),> 20000 nM (inactive)
10,CN(Cc1cnc2nc(N)nc(N)c2n1)c1ccc(C(=O)N[C@@H](CCC(=O)O)C(=O)O)cc1,26.5 nM
11,CC[C@]1(O)C[C@H]2CN(CCc3c([nH]c4ccccc34)[C@@](C(=O)OC)(c3cc4c(cc3OC)N(C=O)[C@H]3[C@@](O)(C(=O)OC)[C@H](OC(C)=O)[C@]5(CC)C=CCN6CC[C@]43[C@@H]65)C2)C1,4 nM
12,CCCCCCCCCCOCC(O)CN (centres undefined),> 20000 nM (inactive)
13,C=C(C)[C@H]1Cc2c(ccc3c2O[C@@H]2COc4cc(OC)c(OC)cc4[C@@H]2C3=O)O1,2990 nM
14,[O-][n+]1ccccc1SSc1cccc[n+]1[O-],991 nM
15,Oc1c(I)cc(Cl)c2cccnc12,> 20000 nM (inactive)
16,Cc1ccc2nc(N)[nH]c(=O)c2c1Sc1ccncc1,710 nM
17,COC(=O)Nc1nc2ccc(C(=O)c3cccs3)cc2[nH]1,235 nM
18,CCCCCCCCCCCC(=O)[O][Sn]([CH2]CCC)([CH2]CCC)[O]C(=O)CCCCCCCCCCC,> 20000 nM (inactive)
19,Cc1cc2c(C(C)C)c(O)c(O)c(C=O)c2c(O)c1-c1c(C)cc2c(C(C)C)c(O)c(O)c(C=O)c2c1O,3490 nM
20,Clc1cc(Cl)c(OCC#CI)cc1Cl,> 20000 nM (inactive)
21,COc1cc(C=C2CCC/C(=C\c3ccc(O)c(OC)c3)C2=O)ccc1O,5040 nM (inactive)
